Legend:
[1] = molecular target: Serotonin 3 (5-HT3) receptor; assay: Binding affinity towards 5-hydroxytryptamine 3 receptor; type: protein-complex assay
[2] = molecular target: T1, Serotonin 3 (5-HT3) receptor (Homo sapiens) (UniProt P46098+A5X5Y0+O95264+Q70Z44+Q8WXA8); assay: Compound was tested for agonistic activity against 5-hydroxytryptamine 3 receptor on guinea pig colon at a concentration of 3 uM; type: functional, tissue-based; conditions: Cavia porcellus, target entry is the homologue from another species
[3] = molecular target: T1, Serotonin 3 (5-HT3) receptor (Homo sapiens); assay: Compound was tested for agonistic activity against 5-hydroxytryptamine 3 receptor on guinea pig colon at a concentration of 10 uM; type: functional, tissue-based; conditions: Cavia porcellus, target entry is the homologue from another species
[4] = molecular target: T1, Serotonin 3 (5-HT3) receptor (Homo sapiens); assay: Compound was tested for agonistic activity against 5-hydroxytryptamine 3 receptor on guinea pig colon at a concentration of 10 uM in the presence of 30 uM MDL 72222; type: functional, tissue-based; conditions: Cavia porcellus, target entry is the homologue from another species
[5] = molecular target: T1, Serotonin 3 (5-HT3) receptor (Homo sapiens); assay: Compound was tested for agonistic activity against 5-hydroxytryptamine 3 receptor on guinea pig colon at a concentration of 1 uM; type: functional, tissue-based; conditions: Cavia porcellus, target entry is the homologue from another species
[6] = molecular target: 5-hydroxytryptamine receptor 4 (Homo sapiens, UniProt Q13639); assay: Compound was tested for agonistic activity against 5-hydroxytryptamine 4 receptor on guinea colon at a concentration 0.1 uM; type: functional, tissue-based
[7] = Compound was tested for binding affinity against 5-HT1 receptor
[8] = molecular target: T2, 5-hydroxytryptamine receptor 1A (Homo sapiens, UniProt P08908); assay: Compound was tested for binding affinity against 5-hydroxytryptamine 1A receptor
T2 sequence (P08908 whole entry): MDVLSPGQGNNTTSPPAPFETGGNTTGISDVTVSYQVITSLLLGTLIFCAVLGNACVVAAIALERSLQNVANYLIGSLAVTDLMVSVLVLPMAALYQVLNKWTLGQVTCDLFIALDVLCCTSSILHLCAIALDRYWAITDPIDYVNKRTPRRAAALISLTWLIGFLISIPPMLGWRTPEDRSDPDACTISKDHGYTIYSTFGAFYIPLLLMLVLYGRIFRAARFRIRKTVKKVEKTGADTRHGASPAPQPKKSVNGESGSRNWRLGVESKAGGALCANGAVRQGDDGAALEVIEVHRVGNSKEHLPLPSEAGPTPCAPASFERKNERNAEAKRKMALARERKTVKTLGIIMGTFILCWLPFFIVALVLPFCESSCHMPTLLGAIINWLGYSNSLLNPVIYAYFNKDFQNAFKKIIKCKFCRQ

[9] = molecular target: Sodium-dependent dopamine transporter (Homo sapiens) (UniProt Q01959); assay: Compound was tested for binding affinity against dopaminergic uptake
[10] = molecular target: 5-hydroxytryptamine receptor 1B (Homo sapiens, UniProt P28222); assay: Compound was tested for binding affinity against 5-hydroxytryptamine 1B receptor
[11] = molecular target: 5-hydroxytryptamine receptor 7 (Homo sapiens) (UniProt P34969); assay: Percentage of displacement at 5-hydroxytryptamine 7 receptor at 10e-8 M
[12] = molecular target: T1, Serotonin 3 (5-HT3) receptor (Homo sapiens); assay: Percent of control response to 5-HT3 agonistic activity on guinea colon at a concentration 0.1 uM; type: functional, tissue-based; conditions: Cavia porcellus, target entry is the homologue from another species
[13] = molecular target: T1, Serotonin 3 (5-HT3) receptor (Homo sapiens); assay: Compound was tested for agonistic activity against 5-hydroxytryptamine 3 receptor on guinea colon at a concentration 0.01 uM; type: functional, tissue-based; conditions: Cavia porcellus, target entry is the homologue from another species
[14] = molecular target: 5-hydroxytryptamine receptor 1D (Homo sapiens, UniProt P28221); assay: Compound was tested for binding affinity against 5-hydroxytryptamine 1D receptor
[15] = molecular target: Serotonin 2 (5-HT2) receptor (Homo sapiens, UniProt P41595+P28223+P28335); assay: Compound was tested for binding affinity against 5-hydroxytryptamine 2 receptor; type: protein assay
[16] = molecular target: Sodium-dependent noradrenaline transporter (Homo sapiens) (UniProt P23975); assay: Compound was tested for binding affinity against noradrenergic uptake
[17] = molecular target: T1, Serotonin 3 (5-HT3) receptor (Homo sapiens); assay: Percent of control response to 5-HT3 antagonistic activity on guinea colon at a concentration 0.01 uM; type: functional, tissue-based; conditions: Cavia porcellus, target entry is the homologue from another species
[18] = molecular target: T1, Serotonin 3 (5-HT3) receptor (Homo sapiens); assay: Percent of control response to 5-HT3 agonistic activity on guinea colon at a concentration 1 uM in the presence of 30 uM MDL 72222; type: functional, tissue-based; conditions: Cavia porcellus, target entry is the homologue from another species
[19] = molecular target: Serotonin 3 (5-HT3) receptor; assay: Compound was tested for agonistic activity against 5-HT uptake; type: functional
[20] = molecular target: Serotonin 3 (5-HT3) receptor; assay: Compound was tested for binding affinity towards 5-hydroxytryptamine 3 receptor; type: protein-complex assay
[21] = molecular target: T1, Serotonin 3 (5-HT3) receptor (Homo sapiens); assay: Percent of control response to 5-HT3 antagonistic activity on guinea colon at a concentration 1 uM; type: functional, tissue-based; conditions: Cavia porcellus, target entry is the homologue from another species
[22] = molecular target: 5-hydroxytryptamine receptor 6 (Homo sapiens) (UniProt P50406); assay: Percentage of displacement at 5-hydroxytryptamine 6 receptor at 10e-8 M
[23] = molecular target: T1, Serotonin 3 (5-HT3) receptor (Homo sapiens); assay: Percent of control response to 5-HT3 agonistic activity on guinea colon at a concentration 0.01 uM; type: functional, tissue-based; conditions: Cavia porcellus, target entry is the homologue from another species
[24] = molecular target: T3, 5-hydroxytryptamine receptor 2C (Homo sapiens, UniProt P28335); assay: Compound was tested for binding affinity against 5-hydroxytryptamine 2C receptor
T3 sequence (P28335 whole entry): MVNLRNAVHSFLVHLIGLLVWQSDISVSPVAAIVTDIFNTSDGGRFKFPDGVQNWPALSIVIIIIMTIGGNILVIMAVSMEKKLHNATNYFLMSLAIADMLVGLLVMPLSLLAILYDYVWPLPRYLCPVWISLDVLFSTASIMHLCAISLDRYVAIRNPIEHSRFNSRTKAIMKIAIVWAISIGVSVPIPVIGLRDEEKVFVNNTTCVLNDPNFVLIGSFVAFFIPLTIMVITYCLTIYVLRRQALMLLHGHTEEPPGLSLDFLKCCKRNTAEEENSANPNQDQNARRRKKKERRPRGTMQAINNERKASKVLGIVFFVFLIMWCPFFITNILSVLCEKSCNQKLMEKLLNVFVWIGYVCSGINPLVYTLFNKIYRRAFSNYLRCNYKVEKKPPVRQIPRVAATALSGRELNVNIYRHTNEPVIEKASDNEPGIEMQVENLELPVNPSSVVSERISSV

[25] = molecular target: T1, Serotonin 3 (5-HT3) receptor (Homo sapiens); assay: Percent of control response to 5-HT3 agonistic activity on guinea colon at a concentration 1 uM; type: functional, tissue-based; conditions: Cavia porcellus, target entry is the homologue from another species

Sequence of 5-hydroxytryptamine receptor 4 (Q13639 whole entry): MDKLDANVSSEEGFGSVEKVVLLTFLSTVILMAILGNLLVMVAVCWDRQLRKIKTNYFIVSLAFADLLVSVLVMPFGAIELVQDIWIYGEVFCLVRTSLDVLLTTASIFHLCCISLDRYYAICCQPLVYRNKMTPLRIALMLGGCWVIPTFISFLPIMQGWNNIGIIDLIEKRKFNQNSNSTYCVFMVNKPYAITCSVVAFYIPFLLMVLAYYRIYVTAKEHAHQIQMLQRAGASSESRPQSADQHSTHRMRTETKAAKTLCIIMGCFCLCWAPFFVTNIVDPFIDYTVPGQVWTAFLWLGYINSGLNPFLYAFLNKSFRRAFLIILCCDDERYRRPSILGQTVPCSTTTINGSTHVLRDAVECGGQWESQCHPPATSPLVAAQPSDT
Sequence of 5-hydroxytryptamine receptor 1B (P28222 whole entry): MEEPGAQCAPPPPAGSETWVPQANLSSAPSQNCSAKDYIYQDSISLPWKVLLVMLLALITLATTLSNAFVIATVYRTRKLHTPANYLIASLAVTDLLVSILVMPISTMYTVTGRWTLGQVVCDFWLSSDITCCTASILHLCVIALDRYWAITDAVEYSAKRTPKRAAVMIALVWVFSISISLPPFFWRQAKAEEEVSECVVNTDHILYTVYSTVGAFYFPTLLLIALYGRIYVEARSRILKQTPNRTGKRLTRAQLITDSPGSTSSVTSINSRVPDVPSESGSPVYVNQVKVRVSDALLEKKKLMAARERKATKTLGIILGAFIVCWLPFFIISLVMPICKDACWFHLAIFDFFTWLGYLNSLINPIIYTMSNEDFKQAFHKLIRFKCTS
Sequence of 5-hydroxytryptamine receptor 6 (Homo sapiens) (P50406 whole entry): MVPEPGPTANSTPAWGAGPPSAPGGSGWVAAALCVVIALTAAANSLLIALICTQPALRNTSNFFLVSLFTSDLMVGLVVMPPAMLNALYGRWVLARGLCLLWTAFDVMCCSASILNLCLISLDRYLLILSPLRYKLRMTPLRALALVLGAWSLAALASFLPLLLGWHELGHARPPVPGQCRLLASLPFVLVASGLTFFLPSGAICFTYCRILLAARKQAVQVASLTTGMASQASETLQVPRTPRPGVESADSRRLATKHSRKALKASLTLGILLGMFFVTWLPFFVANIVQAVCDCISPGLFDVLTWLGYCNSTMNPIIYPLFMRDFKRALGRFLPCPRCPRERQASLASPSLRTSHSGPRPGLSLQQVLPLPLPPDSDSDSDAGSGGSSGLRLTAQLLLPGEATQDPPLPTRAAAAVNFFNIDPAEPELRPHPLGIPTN
Sequence of 5-hydroxytryptamine receptor 1D (P28221 whole entry): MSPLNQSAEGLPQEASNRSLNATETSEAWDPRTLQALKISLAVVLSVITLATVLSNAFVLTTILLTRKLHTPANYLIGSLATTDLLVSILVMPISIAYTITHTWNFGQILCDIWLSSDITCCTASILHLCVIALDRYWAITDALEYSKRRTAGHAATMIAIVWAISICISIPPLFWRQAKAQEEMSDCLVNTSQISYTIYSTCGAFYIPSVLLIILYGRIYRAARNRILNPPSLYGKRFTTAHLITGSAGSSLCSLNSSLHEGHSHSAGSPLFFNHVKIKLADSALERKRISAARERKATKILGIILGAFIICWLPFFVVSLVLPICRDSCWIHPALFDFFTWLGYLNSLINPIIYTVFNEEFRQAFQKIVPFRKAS
Sequence of Sodium-dependent dopamine transporter (Homo sapiens) (Q01959 whole entry): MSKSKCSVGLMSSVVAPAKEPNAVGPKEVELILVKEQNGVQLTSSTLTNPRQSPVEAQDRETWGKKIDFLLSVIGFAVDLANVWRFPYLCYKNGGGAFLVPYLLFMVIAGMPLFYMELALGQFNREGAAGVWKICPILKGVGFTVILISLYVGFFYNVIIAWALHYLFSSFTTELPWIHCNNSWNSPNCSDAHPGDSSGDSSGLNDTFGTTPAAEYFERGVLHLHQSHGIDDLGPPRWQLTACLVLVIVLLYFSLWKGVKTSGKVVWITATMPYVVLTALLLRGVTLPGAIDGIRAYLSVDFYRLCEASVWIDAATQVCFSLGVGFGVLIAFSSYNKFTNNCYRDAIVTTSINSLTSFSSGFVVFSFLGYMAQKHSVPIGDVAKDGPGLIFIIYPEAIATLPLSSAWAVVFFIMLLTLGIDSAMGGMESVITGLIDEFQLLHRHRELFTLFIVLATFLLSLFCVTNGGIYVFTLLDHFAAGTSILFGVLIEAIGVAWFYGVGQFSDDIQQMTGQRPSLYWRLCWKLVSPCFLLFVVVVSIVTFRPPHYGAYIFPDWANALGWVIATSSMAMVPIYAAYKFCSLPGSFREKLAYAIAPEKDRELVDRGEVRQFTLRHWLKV
Sequence of Sodium-dependent noradrenaline transporter (Homo sapiens) (P23975 whole entry): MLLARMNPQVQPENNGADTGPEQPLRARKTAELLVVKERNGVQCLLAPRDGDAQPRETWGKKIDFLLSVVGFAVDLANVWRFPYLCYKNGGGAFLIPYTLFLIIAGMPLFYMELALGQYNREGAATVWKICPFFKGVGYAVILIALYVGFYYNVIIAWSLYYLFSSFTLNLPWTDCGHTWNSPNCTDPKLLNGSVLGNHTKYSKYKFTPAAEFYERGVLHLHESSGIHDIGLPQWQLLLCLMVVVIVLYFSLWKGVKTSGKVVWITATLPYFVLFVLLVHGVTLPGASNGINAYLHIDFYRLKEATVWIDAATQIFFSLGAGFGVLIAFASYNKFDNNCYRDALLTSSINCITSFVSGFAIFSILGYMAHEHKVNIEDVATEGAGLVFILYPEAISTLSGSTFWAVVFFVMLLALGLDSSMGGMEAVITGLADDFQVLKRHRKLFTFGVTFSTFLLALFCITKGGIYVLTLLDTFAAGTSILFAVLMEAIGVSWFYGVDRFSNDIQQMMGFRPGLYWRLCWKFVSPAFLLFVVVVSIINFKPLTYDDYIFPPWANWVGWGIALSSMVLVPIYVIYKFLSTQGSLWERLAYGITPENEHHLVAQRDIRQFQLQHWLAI
Sequence of 5-hydroxytryptamine receptor 7 (Homo sapiens) (P34969 whole entry): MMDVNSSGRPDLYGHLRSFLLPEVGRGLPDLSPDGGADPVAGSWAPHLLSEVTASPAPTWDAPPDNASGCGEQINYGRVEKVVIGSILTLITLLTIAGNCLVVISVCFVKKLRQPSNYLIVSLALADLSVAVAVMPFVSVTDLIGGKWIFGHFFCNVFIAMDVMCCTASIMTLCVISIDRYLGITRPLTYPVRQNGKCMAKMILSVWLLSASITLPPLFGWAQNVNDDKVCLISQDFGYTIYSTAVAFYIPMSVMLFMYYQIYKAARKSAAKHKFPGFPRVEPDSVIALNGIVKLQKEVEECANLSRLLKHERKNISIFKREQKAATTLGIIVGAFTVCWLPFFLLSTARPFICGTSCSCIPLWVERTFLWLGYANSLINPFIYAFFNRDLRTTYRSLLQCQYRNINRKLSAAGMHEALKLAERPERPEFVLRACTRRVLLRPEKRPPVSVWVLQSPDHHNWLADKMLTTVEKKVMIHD

In the case of `Cc1csc2c1-n1cccc1/C2=N/OCCCN(C)C`, the “-Log IC50” value [1] is reported as 8.6.
In the case of `c1ccc(CN2CCN(c3nc4sccc4n4cccc34)CC2)cc1`, the “-Log IC50” value [1] is reported as 8.34.
For `Cc1csc2c1-n1cccc1/C2=N/OCCN1CCCC1`, the “-Log IC50” value [1] was 8.7.
Molecule `NCCc1c[nH]c2ccc(O)cc12` has an Agonist activity [2] of 76, an Agonist activity [3] of 90 and an Agonist activity [4] of 0. It also gave an Agonist activity [5] of 41.
In the case of `Cc1csc2c1-n1cccc1/C2=N/OCCN(C)Cc1ccccc1`, the “-Log IC50” value [1] is reported as 8.16.
With `Cc1csc2c1-n1cccc1/C2=N/OCCNCc1ccccc1` the “-Log IC50” value [1] was 7.54.
In the case of `CN(CCO/N=C1\c2sccc2-n2cccc21)Cc1ccccc1`, the “-Log IC50” value [1] is reported as 7.63.
For `CCN(CC)CCO/N=C1\c2sccc2-n2cccc21`, the “-Log IC50” value [1] was 8.3.
For `Cc1ccc(-c2csc3c2-n2cccc2/C3=N/OCCN)cc1`, the “-Log IC50” value [1] was 6.66.
In the case of `CN(C)CCO/N=C1\c2ccccc2-n2cccc21`, the “-Log IC50” value [1] is reported as 8.24.
In the case of `CN(C)CCO/N=C1\c2sccc2-n2cccc21`, the “-Log IC50” value [1] is reported as 8.46.
With `Cc1csc2c1-n1cccc1/C2=N/OCCCN(C)Cc1ccccc1` the “-Log IC50” value [1] was 7.47.
With `CN(C)CCO/N=C1\c2cc(Cl)ccc2-n2cccc21` the “-Log IC50” value [1] was 7.06.
For `c1ccc(CNCCO/N=C2\c3ccccc3-n3cccc32)cc1`, the “-Log IC50” value [1] was 6.54.
With `CN1CCCC1CCO/N=C1\c2ccccc2-n2cccc21` (configuration not stated) the “-Log IC50” value [1] was 7.85.
For `Cc1csc2c1-n1cccc1/C2=N/OCCN(C)C`, the IC50 [6] was 871 nM, the “-Log IC50” value [7] was 5.66 and the IC50 [8] was 5750 nM. The Affinity [9] was 5.28%, the IC50 [10] was 2690 nM and the Displacement [11] was 0%. For the same molecule, the Activity [12] was 37, the Activity [13] was 0 and the IC50 [14] was 479 nM. For the same molecule, the “-Log IC50” value [15] was 5.5, the Affinity [16] was 6% and the Activity [17] was 64. For the same molecule, the Activity [18] was 73, the “-Log IC50” value [19] was 6.92 and the “-Log IC50” value [20] was 9.1. It also gave an Activity [21] of 16, a Displacement [22] of 0% and an Activity [23] of 0. It also gave an IC50 [24] of 2140 nM and an Activity [25] of 0.
In the case of `Cc1csc2c1-n1cccc1/C2=N/OCCN1CCCCC1`, the “-Log IC50” value [1] is reported as 8.4.
In the case of `Cc1csc2c1-n1cccc1/C2=N/OCCN`, the “-Log IC50” value [1] is reported as 7.62.
In the case of `NCCO/N=C1\c2ccccc2-n2cccc21`, the “-Log IC50” value [1] is reported as 6.66.
For `Cc1csc2c1-n1cccc1/C2=N/OCCC1CCCN1C` (configuration not stated), the “-Log IC50” value [1] was 8.7.
